The target in this assay is NRAS (Homo sapiens, UniProt P01111, Q61R). Nature of the assay: acyl-resin assisted capture. Format: cell-based.

In turn, C8 alkyl cysteine [compound 1] had a concentration for half-maximal inhibition (IC50) of 7 µM.

In general, IC50 refers to the point on the concentration scale where inhibition reaches its midpoint. A high value points to weaker potency in that assay.

Source of the values: PMC7556697 (ACS chemical biology, 2020).
